According to patent US6458813B1, “Substituted pyridine compounds and methods of use” (Amgen Inc., priority 1997, dated 2002):

System: production of tumor necrosis factor (TNF) by monocytes activated with bacterial lipopolysaccharide (LPS)
Experiment: Lipopolysaccharide-activated monocyte TNF production assay
Type: cell-based
Settings: Homo sapiens, adherent monocytes from PBMCs, 60 min with compound, then LPS 4 hrs, TNF in supernatants by ELISA, read-out: IC50 (concentration of test compounds causing a 50% reduction in TNF production)
Procedure: Lipopolysaccharide-activated monocyte TNF production assay
Test compounds were evaluated in vitro for the ability to inhibit the production of tumor necrosis factor (TNF) by monocytes activated with bacterial lipopolysaccharide (LPS). Fresh residual source leukocytes (a byproduct of plateletpheresis) were obtained from a local blood bank, and peripheral blood mononuclear cells (PBMCs) were isolated by density gradient centrifugation on Ficol-Paque Plus (Pharmacia). PBMCs were suspended at 2×10^6/ml in DMEM supplemented to contain 2% FCS, 10 mM, 0.3 mg/ml […], 100 U/ml penicillin G and […] streptomycin sulfate (complete media). Cells were plated into Falcon flat bottom, 96 well culture plates (200 μl/well) and cultured overnight at 37° C. and 6% CO2. Non-adherent cells were removed by washing with 200 μl/well of fresh medium. Wells containing adherent cells (˜70% monocytes) were replenished with 100 μl of fresh medium.
Preparation of test compound stock solutions
Test compounds were dissolved in DMSO. Compound stock solutions were prepared to an initial concentration of […]. Stocks were diluted initially to 20-200 μM in complete media. Nine two-fold serial dilutions of each compound were then prepared in complete medium.
Treatment of cells with test compounds and activation of TNF production with lipopolysaccharide
One hundred microliters of each test compound dilution were added to microtiter wells containing adherent monocytes and 100 μl complete medium. Monocytes were cultured with test compounds for 60 min at which time 25 μl of complete medium containing 30 ng/ml lipopolysaccharide from E. coli K532 were added to each well. Cells were cultured an additional 4 hrs. Culture supernatants were then removed and TNF presence in the supernatants was quantified using an ELISA.
Flat bottom, 96 well Corning High Binding ELISA plates were coated overnight (4° C.) with 150 μL/well of 3 μg/ml murine anti-human TNF-α MAb (R&D Systems #MAB210). Wells were then blocked for 1 hr at room temperature with 200 μL/well of CaCl2-free ELISA buffer supplemented to contain 20 mg/ml BSA (standard ELISA buffer: […], 150 mM NaCl, 2 mM CaCl2, 0.15 mM thimerosal, pH 7.4). Plates were washed and replenished with 100 μl of test supernatants (diluted 1:3) or standards. Standards consisted of eleven 1.5-fold serial dilutions from a stock of 1 ng/ml recombinant human TNF (R&D Systems). Plates were incubated at room temperature for 1 hr on orbital shaker (300 rpm), washed and replenished with 100 μl/well of 0.5 μg/ml goat anti-human TNF-α (R&D systems #AB-210-NA) biotinylated at a 4:1 ratio. Plates were incubated for 40 min, washed and replenished with 100 μl/well of alkaline phosphatase-conjugated streptavidin (Jackson ImmunoResearch #016-050-084) at 0.02 μg/ml. Plates were incubated 30 min, washed and replenished with 200 μl/well of 1 mg/ml of p-nitrophenyl phosphate. After 30 min, plates were read at 405 nm on a Vmax plate reader.
Standard curve data were fit to a second order polynomial and unknown TNF-α concentrations determined from their OD by solving this equation for concentration. TNF concentrations were then plotted vs. test compound concentration using a second order polynomial. This equation was then used to calculate the concentration of test compounds causing a 50% reduction in TNF production.

Structure (SMILES) | IC50
O=C(Nc1ccc(Oc2cccc3ccccc23)nc1)c1c(Cl)cccc1Cl [2-(1-naphthyloxy)-5-(2,6-dichlorophenylcarbonylamino) pyridine] | < 15 µM
Cc1ccc(Oc2ccc(NC(=O)c3c(C)cccc3C)cn2)c(C)c1 [2-(2,4-dimethylphenoxy)-5-(2,6-dimethylphenylcarbonylamino)pyridine] | < 15 µM
Cc1ccc(Oc2ccc(NC(=O)c3ccccc3C)cn2)c(C)c1 [2-(2,4-dimethylphenoxy)-5-(2-methylphenylcarbonylamino) pyridine] | < 15 µM
Cc1ncccc1Oc1ccc(NC(=O)c2c(Cl)cccc2Cl)cn1 [2-(2-methyl-3-pyridyloxy)-5-(2,6-dichlorophenylcarbonylamino)pyridine] | < 15 µM
Cc1cc(Cl)ccc1Oc1ccc(NC(=O)c2c(Cl)cccc2Cl)cn1 [2-(2-methyl-4-chlorophenoxy)-5-(2,6-dichlorophenylcarbonylamino)pyridine] | < 15 µM
Cc1cc(Cl)ccc1Oc1ccc(NC(=O)c2c(C)cccc2C)cn1 [2-(2-methyl-4-chlorophenoxy)-5-(2,6-dimethylphenylcarbonylamino)pyridine] | < 15 µM
Cc1cc(Cl)ccc1Oc1ccc(NC(=O)c2ccccc2Cl)cn1 [2-(2-methyl-4-chlorophenoxy)-5-(2-chlorophenylcarbonylamino)pyridine] | < 15 µM
Cc1cc(Cl)ccc1Oc1ccc(NC(=O)c2c(C)noc2C)cn1 [2-(2-methyl-4-chlorophenoxy)-5-((3,5-dimethyl-4-isoxazolyl)carbonylamino)pyridine] | < 15 µM
Cc1ccccc1NC(=O)c1ccc(Nc2ccc(Cl)cc2C)nc1 [2-(2-methyl-4-chlorophenylamino)-5-(2-methylphenylaminocarbonyl)pyridine] | < 15 µM
Cc1cc(Cl)ccc1Nc1ccc(NC(=O)c2ccccc2C)cn1 [2-(2-methyl-4-chlorophenylamino)-5-(2-methylphenylcarbonylamino)pyridine] | < 15 µM
Cc1cc(F)ccc1Oc1ccc(NC(=O)c2c(Cl)cccc2Cl)cn1 [2-(2-methyl-4-fluorophenoxy)-5-(2,6-dichlorophenylcarbonylamino)pyridine] | < 15 µM
Cc1cc(F)ccc1Oc1ccc(NC(=O)c2c(C)cccc2C)cn1 [2-(2-methyl-4-fluorophenoxy)-5-(2,6-dimethylphenylcarbonylamino)pyridine] | < 15 µM
Cc1cc(F)ccc1Oc1ccc(NC(=O)c2ccccc2F)cn1 [2-(2-methyl-4-fluorophenoxy)-5-(2-fluorophenylcarbonylamino)pyridine] | < 15 µM
Cc1cc(F)ccc1Oc1ccc(NC(=O)c2ccccc2C)cn1 [2-(2-methyl-4-fluorophenoxy)-5-(2-methylphenylcarbonylamino)pyridine] | < 15 µM
CC1CCCCC1Nc1ccc(NC(=O)c2c(Cl)cccc2Cl)cn1 (centres unmarked) [2-(2-methylcyclohexylamino)-5-(2,6-dichlorophenylcarbonylamino)pyridine] | < 15 µM
Cc1ccccc1C(=O)Nc1ccc(NC2CCCCC2C)nc1 (centres unmarked) [2-(2-methylcyclohexylamino)-5-(2-methylphenylcarbonylamino)pyridine] | < 15 µM
Cc1ccccc1Nc1ccc(NC(=O)c2c(C)cccc2C)cn1 [2-(2-methylphenylamino)-5-(2,6-dimethylphenylcarbonylamino)pyridine] | < 15 µM
Cc1ccccc1Nc1ccc(NC(=O)c2ccccc2C)cn1 [2-(2-methylphenylamino)-5-(2-methylphenylcarbonylamino)pyridine] | < 15 µM
Cc1cccc(C)c1C(=O)Nc1ccc(Oc2ccc(Cl)cc2)nc1 [2-(4-chlorophenoxy)-5-(2,6-dimethylphenylcarbonylamino) pyridine] | < 15 µM
O=C(Nc1ccc(NC2CCCCC2)nc1)c1c(Cl)cccc1Cl [2-cyclohexylamino-5-(2,6-dichlorophenylcarbonylamino) pyridine] | < 15 µM
Cc1cccc(C)c1C(=O)Nc1ccc(NC2CCCCC2)nc1 [2-cyclohexylamino-5-(2,6-dimethylphenylcarbonylamino) pyridine] | < 15 µM
O=C(Nc1ccc(OC2CCCCC2)nc1)c1c(Cl)cccc1Cl [2-cyclohexyloxy-5-(2,6-dichlorophenylcarbonylamino) pyridine] | < 15 µM
Cc1cccc(C)c1C(=O)Nc1ccc(OC2CCCCC2)nc1 [2-cyclohexyloxy-5-(2,6-dimethylphenylcarbonylamino) pyridine] | < 15 µM
O=C(Nc1ccc(OC2CCCCC2)nc1)c1ccccc1Cl [2-cyclohexyloxy-5-(2-chlorophenylcarbonylamino)pyridine] | < 15 µM
Cc1ccccc1C(=O)Nc1ccc(OC2CCCCC2)nc1 [2-cyclohexyloxy-5-(2-methylphenylcarbonylamino)pyridine] | < 15 µM

System: Cyclooxygenase enzyme (COX-1 and COX-2)
Experiment: Cyclooxygenase Enzyme Activity Assay (isoform not stated for the result)
Type: cell-based, human
Settings: COX-1 (THP-1) / COX-2 (HOSC) cell assays, PGE2 ELISA
Procedure: Cyclooxygenase Enzyme Activity Assay
The human monocytic leukemia cell line, THP-1, differentiated by exposure to phorbol esters expresses only COX-1; the human osteosarcoma cell line 143B expresses predominantly COX-2. THP-1 cells are routinely cultured in RPMI complete media supplemented with 10% FBS and human osteosarcoma cells (HOSC) are cultured in minimal essential media supplemented with 10% fetal bovine serum (MEM-10%FBS); all cell incubations are at 37° C. in a humidified environment containing 5% CO2.
In preparation for the COX-1 assay, THP-1 cells are grown to confluency, split 1:3 into RPMI containing 2% FBS and […] phorbol 12-myristate 13-acetate (TPA), and incubated for 48 hours on a shaker to prevent attachment. […] Arachidonic acid is added to a final concentration of […], the cells incubated for 20 minutes at 37° C., and enzyme activity determined as described below. […]
After incubation with arachidonic acid, the reactions are stopped by the addition of 1 N HCl, followed by neutralization with 1 N NaOH and centrifugation to pellet cell debris. Cyclooxygenase enzyme activity in both HOSC and THP-1 cell supernatants is determined by measuring the concentration of PGE2 using a commercially available ELISA (Neogen #404110). […]

IC50 | Structure (SMILES)
≤ 10 µM | Cc1ccc(Nc2ccc(NC(=O)c3c(Cl)cccc3Cl)cn2)c(C)c1 [2-(2,4-dimethylphenylamino)-5-(2,6-dichlorophenylcarbonylamino)pyridine]
